For 26 compounds, Ki results are on record in US8809331B2 (Genentech, Inc., priority 2011, dated 2014).

This experiment concerns the target T1, LRRK2 (Homo sapiens, UniProt Q5S007, G2019S).
T1 construct: purchased Invitrogen PV4882
Kind of experiment: In Vitro LRRK2 LabChip Assay (LRRK2 Ki). The class given is biochemical.

Broadly, the Ki is a dissociation constant, usually derived from enzyme kinetics or from competition with a known ligand. The low end stands for higher affinity, the high end for lower affinity.

T1 sequence (Q5S007 whole entry G2019S): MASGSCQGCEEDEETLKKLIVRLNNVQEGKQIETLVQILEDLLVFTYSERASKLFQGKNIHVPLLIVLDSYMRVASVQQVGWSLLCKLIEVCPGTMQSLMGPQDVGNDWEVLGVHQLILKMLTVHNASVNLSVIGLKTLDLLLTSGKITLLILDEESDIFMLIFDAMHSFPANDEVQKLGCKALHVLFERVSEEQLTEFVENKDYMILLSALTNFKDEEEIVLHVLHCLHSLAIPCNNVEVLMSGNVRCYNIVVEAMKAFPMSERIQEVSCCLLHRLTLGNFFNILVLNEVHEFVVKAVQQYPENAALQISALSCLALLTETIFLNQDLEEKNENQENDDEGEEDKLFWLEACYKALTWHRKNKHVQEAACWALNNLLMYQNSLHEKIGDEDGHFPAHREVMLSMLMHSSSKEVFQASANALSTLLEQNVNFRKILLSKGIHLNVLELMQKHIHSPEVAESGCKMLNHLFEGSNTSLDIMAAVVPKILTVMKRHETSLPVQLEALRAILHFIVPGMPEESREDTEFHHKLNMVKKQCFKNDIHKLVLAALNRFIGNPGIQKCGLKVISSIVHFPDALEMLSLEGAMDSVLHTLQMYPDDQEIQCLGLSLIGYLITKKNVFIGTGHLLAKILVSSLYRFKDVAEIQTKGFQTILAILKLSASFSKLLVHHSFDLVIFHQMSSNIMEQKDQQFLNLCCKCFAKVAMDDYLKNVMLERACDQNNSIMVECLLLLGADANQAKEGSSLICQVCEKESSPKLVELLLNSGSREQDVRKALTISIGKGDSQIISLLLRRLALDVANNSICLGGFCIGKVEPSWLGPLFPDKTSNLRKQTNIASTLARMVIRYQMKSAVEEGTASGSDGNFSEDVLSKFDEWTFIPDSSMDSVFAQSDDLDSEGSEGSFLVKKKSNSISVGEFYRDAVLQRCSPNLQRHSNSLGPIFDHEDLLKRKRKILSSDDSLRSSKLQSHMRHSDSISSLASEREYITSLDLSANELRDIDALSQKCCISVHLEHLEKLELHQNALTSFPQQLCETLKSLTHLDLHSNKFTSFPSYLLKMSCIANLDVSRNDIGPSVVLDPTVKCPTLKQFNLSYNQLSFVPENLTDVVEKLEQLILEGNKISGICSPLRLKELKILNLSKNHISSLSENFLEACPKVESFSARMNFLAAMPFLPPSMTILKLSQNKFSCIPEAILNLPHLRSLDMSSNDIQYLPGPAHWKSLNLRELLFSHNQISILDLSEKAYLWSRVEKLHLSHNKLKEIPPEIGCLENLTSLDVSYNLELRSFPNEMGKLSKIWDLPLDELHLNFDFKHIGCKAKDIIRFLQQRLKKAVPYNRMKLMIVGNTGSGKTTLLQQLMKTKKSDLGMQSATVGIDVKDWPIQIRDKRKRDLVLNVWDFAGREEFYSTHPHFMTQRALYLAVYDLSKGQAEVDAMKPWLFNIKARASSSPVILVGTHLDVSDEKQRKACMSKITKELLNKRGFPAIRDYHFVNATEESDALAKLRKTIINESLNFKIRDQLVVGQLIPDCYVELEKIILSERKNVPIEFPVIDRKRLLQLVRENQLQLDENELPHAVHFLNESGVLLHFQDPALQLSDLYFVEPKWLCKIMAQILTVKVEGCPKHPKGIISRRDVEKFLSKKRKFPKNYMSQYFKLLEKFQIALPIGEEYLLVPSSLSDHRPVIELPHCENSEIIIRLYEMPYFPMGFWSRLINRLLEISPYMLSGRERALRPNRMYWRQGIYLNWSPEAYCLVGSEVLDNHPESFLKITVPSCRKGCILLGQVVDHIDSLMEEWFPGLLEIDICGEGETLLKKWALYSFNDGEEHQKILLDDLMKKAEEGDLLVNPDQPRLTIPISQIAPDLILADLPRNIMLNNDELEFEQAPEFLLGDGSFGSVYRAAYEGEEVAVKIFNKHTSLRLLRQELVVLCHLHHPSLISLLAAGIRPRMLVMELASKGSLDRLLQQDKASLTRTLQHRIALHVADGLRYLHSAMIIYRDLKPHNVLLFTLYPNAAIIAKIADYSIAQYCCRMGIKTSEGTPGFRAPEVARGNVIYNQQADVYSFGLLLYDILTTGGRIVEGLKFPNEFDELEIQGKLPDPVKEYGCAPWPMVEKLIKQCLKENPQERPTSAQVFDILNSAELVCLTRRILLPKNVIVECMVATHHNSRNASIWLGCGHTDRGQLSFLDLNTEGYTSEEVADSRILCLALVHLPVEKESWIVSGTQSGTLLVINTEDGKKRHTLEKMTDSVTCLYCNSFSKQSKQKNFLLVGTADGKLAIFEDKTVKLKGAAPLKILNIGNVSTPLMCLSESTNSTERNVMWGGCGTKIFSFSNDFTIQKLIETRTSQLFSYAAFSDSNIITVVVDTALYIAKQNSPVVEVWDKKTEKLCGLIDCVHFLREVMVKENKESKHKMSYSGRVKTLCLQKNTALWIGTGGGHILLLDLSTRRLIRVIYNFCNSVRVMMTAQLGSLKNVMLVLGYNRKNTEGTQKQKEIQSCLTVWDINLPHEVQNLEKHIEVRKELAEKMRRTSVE

As to `[2H]C1([2H])OC([2H])([2H])C([2H])([2H])N(C(=O)c2cc(OC)c(Nc3ncc(C(F)(F)F)c(NC)n3)cc2C)C1([2H])[2H]` [Compound 104, (5-methoxy-2-methyl-4-(4-(methylamino)-5-(trifluoromethyl)pyrimidin-2-ylamino)phenyl)(perdeuteromorpholino)methanone], the Ki (Table 5 compounds (formula I)) turned out to be 0.342 nM. The compound `CCNc1nc(Nc2cc(C)c(C(=O)NCC(C)(C)O)cc2OC)ncc1C(F)(F)F` [Compound 105, 4-(4-Ethylamino-5-trifluoromethyl-pyrimidin-2-ylamino)-N-(2-hydroxy-2-methyl-propyl)-5-methoxy-2-methyl-benzamide] displayed a Ki (Table 5 compounds (formula I)) of 0.31 nM. Compound `CCNc1nc(Nc2cc(F)c(C(=O)NC(C)(C)CO)cc2OC)ncc1C(F)(F)F` [Compound 106, 4-(4-Ethylamino-5-trifluoromethyl-pyrimidin-2-ylamino)-2-fluoro-N-(2-hydroxy-1,1-dimethyl-ethyl)-5-methoxy-benzamide] registered a Ki (Table 5 compounds (formula I)) of 0.406 nM. The compound `CCNc1nc(Nc2cc(C)c(C(=O)N3CC[C@H](F)C3)cc2Cl)ncc1C#N` [Compound 107, 2-[2-Chloro-4-((S)-3-fluoro-pyrrolidine-1-carbonyl)-5-methyl-phenylamino]-4-ethylamino-pyrimidine-5-carbonitrile] had a Ki (Table 5 compounds (formula I)) of 9.12 nM. As for `CCNc1nc(Nc2ccc(C(=O)N3CC[C@H](F)C3)cc2Cl)ncc1C#N` [Compound 108, 2-[2-Chloro-4-((S)-3-fluoro-pyrrolidine-1-carbonyl)-phenylamino]-4-ethylamino-pyrimidine-5-carbonitrile], where the note is “Table 5 compounds (formula I)”, the Ki is 28.9 nM. Still for that read-out and setting: for `CNc1nc(Nc2cc(C)c(C(=O)N3CCOCC3)cc2OCC2CC2)ncc1C(F)(F)F` [Compound 109, [5-Cyclopropylmethoxy-2-methyl-4-(4-methylamino-5-trifluoromethyl-pyrimidin-2-ylamino)-phenyl]-morpholin-4-yl-methanone] the value was 1.38 nM; for `CNc1nc(Nc2cc(OC)c(C(=O)N3CCCCC3)cc2OCF)ncc1C(F)(F)F` [Compound 110, [5-Fluoromethoxy-2-methoxy-4-(4-methylamino-5-trifluoromethyl-pyrimidin-2-ylamino)-phenyl]-piperidin-1-yl-methanone], 1.64 nM. For the compound `CCNc1nc(Nc2cc(OCF)c(C(=O)N3CCCC3)cc2Cl)ncc1C(F)(F)F` [Compound 111, [5-Chloro-4-(4-ethylamino-5-trifluoromethyl-pyrimidin-2-ylamino)-2-fluoromethoxy-phenyl]-pyrrolidin-1-yl-methanone], the Ki (Table 5 compounds (formula I)) was 1.68 nM.

Under “Table 5 compounds (formula I)”, `COc1cc(Nc2ncc(C(F)(F)F)c(NC3CCC3)n2)c(F)cc1C(=O)N1CCOCC1` [Compound 112, [4-(4-Cyclobutylamino-5-trifluoromethyl-pyrimidin-2-ylamino)-5-fluoro-2-methoxy-phenyl]-morpholin-4-yl-methanone] came in with a Ki of 0.353 nM.

Compound `COc1cc(Nc2ncc(C(F)(F)F)c(NC3CCC3)n2)c(Cl)cc1C(=O)N1CCOCC1` [Compound 113, [5-Chloro-4-(4-cyclobutylamino-5-trifluoromethyl-pyrimidin-2-ylamino)-2-methoxy-phenyl]-morpholin-4-yl-methanone] came in with a Ki (Table 5 compounds (formula I)) of 0.326 nM. Compound `CCNc1nc(Nc2cc(F)c(C(=O)NC3(CO)CC3)cc2OC)ncc1C(F)(F)F` [Compound 114, 4-(4-Ethylamino-5-trifluoromethyl-pyrimidin-2-ylamino)-2-fluoro-N-(1-hydroxymethyl-cyclopropyl)-5-methoxy-benzamide] showed a Ki (Table 5 compounds (formula I)) of 0.559 nM. Same read-out and setting: with `CCNc1nc(Nc2cc(F)c(C(=O)NCC3(O)CC3)cc2OC)ncc1C(F)(F)F` [Compound 115, 4-(4-Ethylamino-5-trifluoromethyl-pyrimidin-2-ylamino)-2-fluoro-N-(1-hydroxy-cyclopropylmethyl)-5-methoxy-benzamide] the figure was 0.31 nM; with `CNc1nc(Nc2cc(C)c(C(=O)NCC(C)(C)O)cc2OC)ncc1C(F)(F)F` [Compound 116, N-(2-Hydroxy-2-methyl-propyl)-5-methoxy-2-methyl-4-(4-methylamino-5-trifluoromethyl-pyrimidin-2-ylamino)-benzamide], 1.19 nM; with `CCNc1nc(Nc2cc(OC)c(C(=O)N3CC[C@H](F)C3)cc2Cl)ncc1C#N` [Compound 117, 2-[2-Chloro-4-((S)-3-fluoro-pyrrolidine-1-carbonyl)-5-methoxy-phenylamino]-4-ethylamino-pyrimidine-5-carbonitrile], 12.7 nM. Same read-out and setting: for `CCNc1nc(Nc2cc(F)c(C(=O)N3CCOCC3)cc2C)ncc1C(F)(F)F` [Compound 118, [4-(4-Ethylamino-5-trifluoromethyl-pyrimidin-2-ylamino)-2-fluoro-5-methyl-phenyl]-morpholin-4-yl-methanone] the value was 2.76 nM.

Take `COc1nc(Nc2cc(C)c(C(=O)N3CCCC3)cc2OCF)ncc1Cl` [Compound 119, [4-(5-Chloro-4-methoxy-pyrimidin-2-ylamino)-5-fluoromethoxy-2-methyl-phenyl]-pyrrolidin-1-yl-methanone]: under “Table 5 compounds (formula I)”, the Ki came to 11.2 nM.

For the setting “Table 5 compounds (formula I)”, `CNc1nc(Nc2cc(OC)c(C(=O)N(C)C)cc2OCF)ncc1C(F)(F)F` [Compound 120, 5-Fluoromethoxy-2-methoxy-N,N-dimethyl-4-(4-methylamino-5-trifluoromethyl-pyrimidin-2-ylamino)-benzamide] showed a Ki of 4.42 nM. Regarding `CCNc1nc(Nc2cc(OCF)c(C(=O)N3CCCC3)cc2F)ncc1C(F)(F)F` [Compound 121, [4-(4-Ethylamino-5-trifluoromethyl-pyrimidin-2-ylamino)-5-fluoro-2-fluoromethoxy-phenyl]-pyrrolidin-1-yl-methanone], the Ki (Table 5 compounds (formula I)) stood at 3.43 nM. For the setting “Table 5 compounds (formula I)”, `CNc1nc(Nc2cc(OC)c(C(=O)N3CCOCC3)c(OC)c2F)ncc1C(F)(F)F` [Compound 122, [3-Fluoro-2,6-dimethoxy-4-(4-methylamino-5-trifluoromethyl-pyrimidin-2-ylamino)-phenyl]-morpholin-4-yl-methanone] had a Ki of 2.06 nM. For the setting “Table 5 compounds (formula I)”, `[2H]C1([2H])C(Nc2nc(Nc3cc(F)c(C(=O)N4CCOCC4)cc3OC)ncc2C(F)(F)F)C1([2H])[2H]` [Compound 123, (4-(4-(2,3-tetradeutero-cyclopropylamino)-5-(trifluoromethyl)pyrimidin-2-ylamino)-2-fluoro-5-methoxyphenyl)(morpholino)methanone] gave a Ki of 0.31 nM. Regarding `CNc1nc(Nc2cc(OC(F)(F)F)c(C(=O)N3CCOCC3)cc2OC)ncc1C(F)(F)F` [Compound 124, [5-Methoxy-4-(4-methylamino-5-trifluoromethyl-pyrimidin-2-ylamino)-2-trifluoromethoxy-phenyl]-morpholin-4-yl-methanone], the Ki (Table 5 compounds (formula I)) worked out at 4.3 nM.

Turning to `CCNc1nc(Nc2cc(OC)c(C(=O)N3CCOCC3)cc2OC)ncc1C(F)(F)F` [Compound 125, [4-(4-Ethylamino-5-trifluoromethyl-pyrimidin-2-ylamino)-2,5-dimethoxy-phenyl]-morpholin-4-yl-methanone], affinity (Table 5 compounds (formula I)) was put at a Ki of 0.577 nM. As to `CNc1nc(Nc2cc(Cl)c(C(=O)N3CCOCC3)cc2C)ncc1C(F)(F)F` [Compound 126, [2-Chloro-5-methyl-4-(4-methylamino-5-trifluoromethyl-pyrimidin-2-ylamino)-phenyl]-morpholin-4-yl-methanone], where the note is “Table 5 compounds (formula I)”, the affinity corresponds to a Ki of 6.79 nM. Where the note is “Table 5 compounds (formula I)”, `COc1cc(C(=O)N2CCOCC2)c(C)cc1Nc1ncc(C(F)(F)F)c(NC2CCC2)n1` [Compound 129, [4-(4-Cyclobutylamino-5-trifluoromethyl-pyrimidin-2-ylamino)-5-methoxy-2-methyl-phenyl]-morpholin-4-yl-methanone] came in with a Ki of 0.31 nM. For the setting “Table 5 compounds (formula I)”, `CNc1nc(Nc2cc(C)c(C(=O)N3CCOCC3)cc2C)ncc1C(F)(F)F` [Compound 130, [2,5-Dimethyl-4-(4-methylamino-5-trifluoromethyl-pyrimidin-2-ylamino)-phenyl]-morpholin-4-yl-methanone] yielded a Ki of 4.74 nM. In turn, “[5-Chloro-2-hydroxy-4-(4-methylamino-5-trifluoromethyl-pyrimidin-2-ylamino)-phenyl]-morpholin-4-yl-methanone [Compound 10]” showed an inhibition constant (Ki) (Table 6 compounds (formula II/III, fused ring)) of 3.17 nM.
